Where “and” joins values, the source holds several entries; their conditions need not be identical. Identical values can stand only once. Entries after “also recorded” stand apart in the source; their conditions may differ. Like-named read-outs stand apart in the source and are kept apart here. Marks after values point to notes of the source that are not given here.
Assays:
[1] = test system: Human breast cancer MCF-7; experiment: Xenograft tumor nude mice screening, MCF-7; format: in vivo, BALB/c nu mice
Procedure: (§1) Certificate NO. SCXK (BeiJing) 2005-0013. • Cell lines: The tumor cell lines were passaged and cultured by our Lab, some of them was obtained from ATCC. • The tumor cell lines included: Human breast cancer MX-1 and MCF-7. • Human ovarian cancer A2780, and clear Human ovarian cell cancer ES-2, • Human lung cancer H1975 and A549. Experiment Method: • 1. […] The administration dose and treatment progress was determined based from the preliminary experiments, which had solid effects and the shortest treatment period—the dose of 30 mg/kg/day, and the administration duration time of every lot experiment was not more than 12 days.

[2] = Toxicity test by single dose, intravenous; format: in vivo, ICR mice
lewis lung cancer [3] = settings: 10 mg/kg i.p. once daily
Procedure: C57Bl/6 mice with lewis lung cancer were sacrificed and the tumor was removed. The tumor cell suspension (5×10^6 cell/mL) was prepared in a sterile condition. The suspension (0.2 mL/mice, 1×10^6 tumor cell) was inoculated subcutaneously into the axillary of 24 C57Bl/6 mice. […] From the 7th day after the implantation, the long diameter and short diameter of tumor was measured every 2 days. Tumor volume was calculated by the formula (½)×long diameter×short diameter^2. Drug was withdrawn on the eighteenth day after the implantation. All mice were then sacrificed and the body weight was measured. The tumors, spleen and lung were removed and weighed. The lungs were fixed in Bouin's fixative for 24 h. The numbers of lung metastasis nodule were counted, and the statistics was evaluated by Mann-Whitney U test.

[4] = test system: human breast cancer line MDA-MB-231; experiment: Tumor growth inhibition in nude mice xenograft model, MDA-MB-231
Procedure: • 1. […] Drug administration dose were set as: 10 mg/kg, 15 mg/kg, and 20 mk/kg, drug administration volume was 0.2 mL/20 g. • 2. […] MDA [Peptide (P) 0.54 mg/mL (0.001M), Example 10], a colorless and clear liquid, was prepared by the commission, can be directly used after the repackaging in a sterile condition, stored at 4° C. […] Certificate NO. […] SYSK (BeiJing) 2004-0001. Experiment Methods:
The mice were divided into groups and administrated drug after 11 days.
The mice were divided into eight groups, each group had 6-8 mice. The groups contained Negative control. […] After grouping, all mice were administrated with drug by intraperitoneal injection once a day depends on their body weight.
Other groups were administered with drugs for 24 times successively. The experiment was completed 24 h after the last administration.
The mice were sacrificed, and tumors were isolated and their weight was measured, and the inhibition rate of tumor growth by drugs were calculated. […] Calculation methods and formula were omitted.

[5] = test system: clear Human ovarian cell cancer ES-2; experiment: Xenograft tumor nude mice screening, ES-2; format: in vivo, BALB/c nu mice; settings: 30 mg/kg i.p., 10~12 times
Procedure: as §1

lewis lung cancer [6] = experiment: Anti-artificial metastasis on Lewis lung cancer in mice (intravenous inoculation); format: in vivo, C57Bl/6 mice
Procedure: The suspension (0.2 mL/mice, 3×10^5 tumor cell) was inoculated intravenously into the tails of fifty C57Bl/6 mice. […] The tumors, spleen and lung were removed and weighed.

[7] = test system: 60 human tumor cell lines; experiment: NCI screening of antitumor activity in vitro in 60 human tumor cell lines; format: cell-based
From the text: The experimental results refer to FIGS. 1-12.

[8] = test system: Human ovarian cancer A2780; experiment: Xenograft tumor nude mice screening, A2780; format: in vivo, BALB/c nu mice; settings: 30 mg/kg i.p., 10~12 times
Procedure: as §1

Human breast cancer MX-1 = experiment: Xenograft tumor nude mice screening, MX-1; format: in vivo, BALB/c nu mice; settings: 30 mg/kg i.p., 10~12 times
Procedure: as §1

[9] = 112.5 mg·kg^−1 i.v. single dose
[10] = 30 mg/kg × 12, i.p. once a day, then withdrawn, larger starting tumors

From the text for Human lung cancer H460: Through cell culture in vitro, the tumor was inoculated on nude mice, the tumor grew and passaged for the experiment use. • Animals: BALB/c nude mice, ♀, 4˜5 weeks old, were obtained from the Experimental Lab, Chinese Academy of Medical Science, Certificate NO. […] Experiment Method:
The tumor-bearing mice with good tumor growth and good general physical condition were selected and sacrificed. Tumor was isolated in a sterile condition and cut into fragments (diameter for about 2-3 mm) by surgical knife. The fragments were then hypodermically inoculated in posterior axillary of nude mice by means of a trocar.
After the tumors grew naturally for eight days, the average volume of tumors reaches 130 mm^3. The length and width of tumor was measured using vernier calipers, and divided into groups by the tumor volume.
The mice were divided into five groups for observation, each groups had eight mice. […] Respective drug was administrated for each group from the grouping day.
The experiment was terminated 24 hours after the last administration.
During the experimentation, the tumors sizes (length and width) and body weights of mice were measured once every three days. The tumor volume (TV) and relative tumor volume (RTV) were calculated according to the method for references, and the tumor volume growth tendency chart was plotted.
At the end of the experiment, the mice were sacrificed. Tumors were removed and weighed, and the inhibition rate of the tumor growth by drugs was calculated. Statistical significance of the tumor weight, tumor volume and RTV level were evaluated by t-test.
[formula] • (C, average tumor weight of control group; T, average tumor weight of administrated group) • Tumor Volume (TV)=length×width^2/2. • Relative Tumor Volume (RTV) formula: Vt/Vo • (Vo is the volume of TV at the beginning of the grouping, and Vt is the volume of TV at measure time) • Anti-tumor activities were evaluated by Tumor Relative proliferation Rate T/C (%)
[formula] • Therapeutic effect evaluation standard: T/C (%)>40, was judged as invalid; • T/C (%)≦40, and through statistical evaluation P<0.05, was judged as valid.

CC(=O)O[C@H]1C(=O)[C@@]2(C)[C@H]([C@H](OC(=O)c3ccccc3)[C@]3(O)C[C@H](OC(=O)[C@H](OC(=O)CCC(=O)NCCCCC(NC(=O)CC[C@H](NC(=O)C(C)NC(=O)/C=C/c4ccc(Cl)cc4)C(N)=O)C(N)=O)[C@@H](NC(=O)c4ccccc4)c4ccccc4)C(C)=C1C3(C)C)[C@]1(OC(C)=O)CO[C@@H]1C[C@@H]2O (stereo partly shown) [MTC-220]
Body weight Beginning ([1]; 30 mg/kg × 12, i.p.): 20.8 ± 1.14 g
Body weight End ([1]; 30 mg/kg × 12, i.p.): 23.3 ± 1.22 g
RTV ([1]; 30 mg/kg × 12, i.p.): 0**
T/C ([1]; 30 mg/kg × 12, i.p.): 0%
TGI ([1]; 30 mg/kg × 12, i.p.): 100%
Tumor volume Beginning ([1]; 30 mg/kg × 12, i.p.): 142 ± 73.5 mm^3
Tumor volume End ([1]; 30 mg/kg × 12, i.p.): 0 mm^3
Tumor weight ([1]; 30 mg/kg × 12, i.p.): 0** g
Tumor observation (in words) ([1]; 30 mg/kg/day, 10 administrations, then withdrawal): disappeared one after another; also recorded: disappeared after successive administration for 10 times
Anatomical examination of organs [2, 9]: no sign of abnormal changes
Body weight compared with control group [2, 9]: not significantly different
Symptoms after injection [2, 9]: voluntary activities of mice in administered group were reduced, some mice showed jumping symptoms
Time to recovery from symptoms [2, 9]: about 10 min
Death ([2]; 112.5 mg·kg^−1 i.v. single dose, 14 days observation): no death occured
MTD at 14 days ([2]; mouse, in vivo, 112.5 mg·kg^−1, single intravenous injection, ICR mice): > 112 mg/kg
Lung weight (lewis lung cancer [3]): 152 ± 37 mg
Toxic and side effect (lewis lung cancer [3]): no toxic and side effect
Body weight Beginning ([4]; 10 mg/kg × 24, i.p. once a day): 17.4 ± 1.47 g
Body weight End ([4]; 10 mg/kg × 24, i.p. once a day): 20.6 ± 1.64 g
RTV ([4]; 10 mg/kg × 24, i.p. once a day): 12.62 ± 5.924
T/C ([4]; 10 mg/kg × 24, i.p. once a day): 70.0%
TGI ([4]; 10 mg/kg × 24, i.p. once a day): 37.3%
Tumor volume Beginning ([4]; 10 mg/kg × 24, i.p. once a day): 135 ± 70.6 mm^3
Tumor volume End ([4]; 10 mg/kg × 24, i.p. once a day): 1655 ± 929.4 mm^3
Tumor weight ([4]; 10 mg/kg × 24, i.p. once a day): 1.78 ± 1.016 g
Body weight increase compared to the beginning of the grouping ([4]; 15 mg/kg × 24, end of the experiment): 2.7 g
Body weight Beginning ([4]; 15 mg/kg × 24, i.p. once a day): 17.9 ± 0.88 g
Body weight End ([4]; 15 mg/kg × 24, i.p. once a day): 20.6 ± 0.91 g
RTV ([4]; 15 mg/kg × 24, i.p. once a day): 7.12 ± 4.064
T/C ([4]; 15 mg/kg × 24, i.p. once a day): 39.5% and 37.5% and 39.49%
TGI ([4]; 15 mg/kg × 24, i.p. once a day): 57.4%
Tumor volume Beginning ([4]; 15 mg/kg × 24, i.p. once a day): 148 ± 80.5 mm^3
Tumor volume End ([4]; 15 mg/kg × 24, i.p. once a day): 967 ± 590.4 mm^3
Tumor weight ([4]; 15 mg/kg × 24, i.p. once a day): 1.21 ± 0.813 g
Body weight increase compared to the beginning of the grouping ([4]; 20 mg/kg × 24, end of the experiment): 1.9 g
Body weight Beginning ([4]; 20 mg/kg × 24, i.p. once a day): 17.0 ± 1.11 g
Body weight End ([4]; 20 mg/kg × 24, i.p. once a day): 18.9 ± 1.58 g
RTV ([4]; 20 mg/kg × 24, i.p. once a day): 4.58 ± 2.456
T/C ([4]; 20 mg/kg × 24, i.p. once a day): 25.40%
TGI ([4]; 20 mg/kg × 24, i.p. once a day): 72.2%
Tumor volume Beginning ([4]; 20 mg/kg × 24, i.p. once a day): 133 ± 57.6 mm^3
Tumor volume End ([4]; 20 mg/kg × 24, i.p. once a day): 642 ± 482.3 mm^3
Tumor weight ([4]; 20 mg/kg × 24, i.p. once a day): 0.79 ± 0.654 g
Body weight increase compared to the beginning of the grouping ([4]; 30 mg/kg × 12, end of the experiment): 2.6 g
Body weight Beginning [4, 10]: 17.5 ± 1.09 g
Body weight End [4, 10]: 20.1 ± 0.98 g
RTV [4, 10]: 1.11 ± 1.366
T/C [4, 10]: 6.16%
TGI [4, 10]: >87.0%
Tumor volume Beginning [4, 10]: 340 ± 58.4 mm^3
Tumor volume End [4, 10]: 391 ± 480.5 mm^3
Tumor weight [4, 10]: 0.37 ± 0.413 g
Inhibition of tumor growth (in words) [5]: at certain degree, but didn't attain the valid standard
Body weight (lewis lung cancer [6]; 2.5 mg/kg i.p.): 19.0 ± 1.9 g
Lung weight (lewis lung cancer [6]; 2.5 mg/kg i.p.): 334 ± 217 mg
Body weight (lewis lung cancer [6]; 5 mg/kg i.p.): 18.4 ± 2.3 g
Lung weight (lewis lung cancer [6]; 5 mg/kg i.p.): 492 ± 353 mg
Lung weight (lewis lung cancer [6]; 10 mg/kg i.p.): 393 ± 326 mg
Lung metastasis nodule number compared to vehicle control (in words) (lewis lung cancer [6]; 2.5, 5, 10 mg/kg, dose dependent): significantly decreased
Body weight Beginning (Human lung cancer H460; 5 mg/kg × 25, i.p.): 18.0 ± 0.95 g
Body weight End (Human lung cancer H460; 5 mg/kg × 25, i.p.): 21.9 ± 1.10 g
RTV (Human lung cancer H460; 5 mg/kg × 25, i.p.): 32.0 ± 8.27
T/C (Human lung cancer H460; 5 mg/kg × 25, i.p.): 96.2%
TGI (Human lung cancer H460; 5 mg/kg × 25, i.p.): 2.15%
Tumor volume Beginning (Human lung cancer H460; 5 mg/kg × 25, i.p.): 125 ± 36.8 mm^3
Tumor volume End (Human lung cancer H460; 5 mg/kg × 25, i.p.): 3737 ± 591.0 mm^3
Tumor weight (Human lung cancer H460; 5 mg/kg × 25, i.p.): 2.91 ± 0.695 g
Growth rate of tumor volume compared to negative control (Human lung cancer H460; 5 mg/kg, 25 days successive administration): not significantly different
Body weight Beginning (Human lung cancer H460; 10 mg/kg × 25, i.p.): 18.2 ± 0.70 g
Body weight End (Human lung cancer H460; 10 mg/kg × 25, i.p.): 21.4 ± 1.15 g
RTV (Human lung cancer H460; 10 mg/kg × 25, i.p.): 27.7 ± 6.81
T/C (Human lung cancer H460; 10 mg/kg × 25, i.p.): 83.1%
TGI (Human lung cancer H460; 10 mg/kg × 25, i.p.): 17.3%
Tumor volume Beginning (Human lung cancer H460; 10 mg/kg × 25, i.p.): 125 ± 43.0 mm^3
Tumor volume End (Human lung cancer H460; 10 mg/kg × 25, i.p.): 3274 ± 797.0 mm^3
Tumor weight (Human lung cancer H460; 10 mg/kg × 25, i.p.): 2.46 ± 0.624 g
Tumor volume inhibition (Human lung cancer H460; 10 mg/kg, end of the experiment): 18.8%
Body weight Beginning (Human lung cancer H460; 20 mg/kg × 25, i.p.): 17.8 ± 1.10 g
Body weight End (Human lung cancer H460; 20 mg/kg × 25, i.p.): 18.9 ± 2.49 g
RTV (Human lung cancer H460; 20 mg/kg × 25, i.p.): 16.7 ± 9.93
T/C (Human lung cancer H460; 20 mg/kg × 25, i.p.): 50.1%
TGI (Human lung cancer H460; 20 mg/kg × 25, i.p.): 52.9%
Tumor volume Beginning (Human lung cancer H460; 20 mg/kg × 25, i.p.): 123 ± 44.6 mm^3
Tumor volume End (Human lung cancer H460; 20 mg/kg × 25, i.p.): 1963 ± 641.9 mm^3
Tumor weight (Human lung cancer H460; 20 mg/kg × 25, i.p.): 1.40 ± 0.466 g
50% growth inhibition (GI50) activity [7]: in the same magnitude range as paclitaxel
Inhibition of tumor growth (in words) [8]: at certain degree, but didn't attain the valid standard
Inhibition of tumor growth (in words) (Human breast cancer MX-1): weak
